Measurements published in PMC11678797, “A Repurposed Drug Selection Pipeline to Identify CNS-Penetrant Drug Candidates for Glioblastoma” (Pharmaceuticals, 2024).
pIC50: −log10 of the molar value.

Assays:
[1] = tested on: GBM8 glioblastoma patient-derived cell culture; test: In vitro drug screening, cell viability by CellTiter GLO 2.0 after 5 days; type: cell-based; conditions: Homo sapiens, 120 h, 5 days incubation
Method: (§1) Glioblastoma stem-like cell cultures (GSC) were derived from primary brain tumor samples received directly from the operating room. Tumor classification was performed by the local neuropathologist according to guidelines of the WHO 2007 and 2016 classification of primary brain tumors. The use of patient tissue for this study was approved by the local ethics committee and all patients signed informed consent forms according to the guidelines of the Institutional Review Board. Samples were processed as described previously. The GBM8 cell line was kindly provided by dr. Hiroaki Wakimoto (Massachusetts General Hospital, Boston, MA, USA). All cell cultures were grown in Dulbecco’s modified Eagle’s medium (DMEM)–F12 with 1% penicillin/streptomycin, B27 (Invitrogen), human epidermal growth factor (EGF; 5 μg/mL), human basic fibroblast growth factor (FGF; 5 μg/mL) (both from Tebu-Bio) and heparin ([…]; Sigma-Aldrich, St. Louis, MI, USA).
(§2) Glioma stem-like cell cultures were cultured under serum free conditions according to Verheul et al.. Cells were seeded in 96-well plates (Greiner bio-one, Kremsmünster, Austria) coated with extracellular matrix (BD Bioscience, Becton Drive Franklin Lakes, NJ, USA) at 1000 cells/well. A stock solution of OMA was diluted in a serum-free cell culture medium to obtain a starting concentration of 8 μM in 0.1% DMSO. Serial dilutions of OMA and DMSO were added to the wells 24 h later for an incubation period of 5 days. Cell viability was measured by the CellTiter GLO 2.0 and dose–response curves and IC50 values were calculated using GraphPad Prism version 9. All experiments were performed in 3 biological replicates.
(§3) GraphPad Prism software version 9.5 (GraphPad Software) was used for calculating IC50 values using nonlinear regression (curve-fit). GraphPad Prism was used to determine whether there was a statistically significant difference in OMA concentration and the B/P ratio between the L and R hemispheres of mice bearing GS832, GS607 and GBM8 tumors, using an unpaired t-test. […]

[2] = tested on: GS607 glioblastoma patient-derived cell culture; test: as above; type: cell-based; conditions: Homo sapiens, 120 h, 5 days incubation
Method: as §1, §2, §3

[3] = tested on: GS832 glioblastoma patient-derived cell culture; test: as above; type: cell-based; conditions: Homo sapiens, 120 h, 5 days incubation
Method: as §1, §2, §3

[4] = source not stated; cited from earlier work
[5] = humans, cited from earlier work

- pIC50 [1]: 8.14
- pIC50 [2]: 7.64
- pIC50 [3]: 8.31
Structure (SMILES): COC(=O)C[C@](O)(CCCC(C)(C)O)C(=O)O[C@@H]1C(OC)=C[C@]23CCCN2CCc2cc4c(cc2[C@H]13)OCO4 [OMA, Omacetaxine mepesuccinate]
- logP value [4]: 1.88
- time to reach Cmax plasma ([5]; s.c. administration): 1 h
- Cmax ([5]; DrugBank, read-out: reported Cmax plasma value): 43 nM
- half-life [5]: 7 h
